± gives the expanded uncertainty stated by the source.
Experiment: xn = mol fraction of the nth substance listed
Settings: 101 kPa, Liquid; for viscosity: Capillary tube (Ostwald / Ubbelohde) method; for speed of sound: Linear variable-path acoustic interferometer

SMILES: C1CCOC1 [tetrahydrofuran] + Cc1ccccc1
- viscosity (288.15 K, x1 = 0.0718): 0.6406 ± 0.0046 mPa·s
- viscosity (288.15 K, x1 = 0.1498): 0.635 ± 0.0046 mPa·s
- viscosity (288.15 K, x1 = 0.2283): 0.6285 ± 0.0046 mPa·s
- viscosity (288.15 K, x1 = 0.2902): 0.6231 ± 0.0045 mPa·s
- viscosity (288.15 K, x1 = 0.3452): 0.6176 ± 0.0045 mPa·s
- viscosity (288.15 K, x1 = 0.4005): 0.6113 ± 0.0044 mPa·s
- viscosity (288.15 K, x1 = 0.4694): 0.6027 ± 0.0044 mPa·s
- viscosity (288.15 K, x1 = 0.5368): 0.5934 ± 0.0043 mPa·s
- viscosity (288.15 K, x1 = 0.6067): 0.5834 ± 0.0043 mPa·s
- viscosity (288.15 K, x1 = 0.6704): 0.5736 ± 0.0042 mPa·s
- viscosity (288.15 K, x1 = 0.7378): 0.5626 ± 0.0041 mPa·s
- viscosity (288.15 K, x1 = 0.8018): 0.5515 ± 0.0041 mPa·s
- viscosity (288.15 K, x1 = 0.8714): 0.5387 ± 0.004 mPa·s
- viscosity (288.15 K, x1 = 0.9368): 0.5259 ± 0.0039 mPa·s
- viscosity (288.15 K, x1 = 1): 0.5129 ± 0.0039 mPa·s
- speed of sound (288.15 K, x1 = 0.0718): 1357.7 ± 1.6 m/s
- speed of sound (288.15 K, x1 = 0.1498): 1356.3 ± 1.6 m/s
- speed of sound (288.15 K, x1 = 0.2283): 1354.6 ± 1.6 m/s
- speed of sound (288.15 K, x1 = 0.2902): 1353.1 ± 1.6 m/s
- speed of sound (288.15 K, x1 = 0.3452): 1351.7 ± 1.6 m/s
- speed of sound (288.15 K, x1 = 0.4005): 1350.1 ± 1.6 m/s
- speed of sound (288.15 K, x1 = 0.4694): 1347.8 ± 1.6 m/s
- speed of sound (288.15 K, x1 = 0.5368): 1345.4 ± 1.6 m/s
- speed of sound (288.15 K, x1 = 0.6067): 1342.8 ± 1.6 m/s
- speed of sound (288.15 K, x1 = 0.6704): 1340.1 ± 1.6 m/s
- speed of sound (288.15 K, x1 = 0.7378): 1337 ± 1.6 m/s
- speed of sound (288.15 K, x1 = 0.8018): 1333.8 ± 1.6 m/s
- speed of sound (288.15 K, x1 = 0.8714): 1330.2 ± 1.6 m/s
- speed of sound (288.15 K, x1 = 0.9368): 1326.6 ± 1.6 m/s
- speed of sound (288.15 K, x1 = 1): 1323.1 ± 1.6 m/s
- viscosity (298.15 K, x1 = 0.0718): 0.5513 ± 0.004 mPa·s
- viscosity (298.15 K, x1 = 0.1498): 0.5491 ± 0.004 mPa·s
- viscosity (298.15 K, x1 = 0.2283): 0.5459 ± 0.004 mPa·s
- viscosity (298.15 K, x1 = 0.2902): 0.5431 ± 0.004 mPa·s
- viscosity (298.15 K, x1 = 0.3452): 0.5398 ± 0.004 mPa·s
- viscosity (298.15 K, x1 = 0.4005): 0.5357 ± 0.0039 mPa·s
- viscosity (298.15 K, x1 = 0.4694): 0.5298 ± 0.0039 mPa·s
- viscosity (298.15 K, x1 = 0.5368): 0.523 ± 0.0039 mPa·s
- viscosity (298.15 K, x1 = 0.6067): 0.5155 ± 0.0038 mPa·s
- viscosity (298.15 K, x1 = 0.6704): 0.508 ± 0.0038 mPa·s
- viscosity (298.15 K, x1 = 0.7378): 0.4993 ± 0.0037 mPa·s
- viscosity (298.15 K, x1 = 0.8018): 0.4903 ± 0.0037 mPa·s
- viscosity (298.15 K, x1 = 0.8714): 0.4797 ± 0.0036 mPa·s
- viscosity (298.15 K, x1 = 0.9368): 0.469 ± 0.0036 mPa·s
- viscosity (298.15 K, x1 = 1): 0.458 ± 0.0036 mPa·s
- speed of sound (298.15 K, x1 = 0.0718): 1309.4 ± 1.6 m/s
- speed of sound (298.15 K, x1 = 0.1498): 1307.9 ± 1.6 m/s
- speed of sound (298.15 K, x1 = 0.2283): 1306.2 ± 1.6 m/s
- speed of sound (298.15 K, x1 = 0.2902): 1304.8 ± 1.6 m/s
- speed of sound (298.15 K, x1 = 0.3452): 1303.4 ± 1.6 m/s
- speed of sound (298.15 K, x1 = 0.4005): 1302 ± 1.6 m/s
- speed of sound (298.15 K, x1 = 0.4694): 1299.9 ± 1.6 m/s
- speed of sound (298.15 K, x1 = 0.5368): 1297.7 ± 1.6 m/s
- speed of sound (298.15 K, x1 = 0.6067): 1295.2 ± 1.6 m/s
- speed of sound (298.15 K, x1 = 0.6704): 1292.8 ± 1.6 m/s
- speed of sound (298.15 K, x1 = 0.7378): 1289.9 ± 1.6 m/s
- speed of sound (298.15 K, x1 = 0.8018): 1287 ± 1.6 m/s
- speed of sound (298.15 K, x1 = 0.8714): 1284 ± 1.6 m/s
- speed of sound (298.15 K, x1 = 0.9368): 1280.7 ± 1.6 m/s
- speed of sound (298.15 K, x1 = 1): 1277.6 ± 1.6 m/s
- viscosity (308.15 K, x1 = 0.0718): 0.5013 ± 0.0037 mPa·s
- viscosity (308.15 K, x1 = 0.1498): 0.5003 ± 0.0037 mPa·s
- viscosity (308.15 K, x1 = 0.2283): 0.498 ± 0.0037 mPa·s
- viscosity (308.15 K, x1 = 0.2902): 0.4956 ± 0.0037 mPa·s
- viscosity (308.15 K, x1 = 0.3452): 0.4929 ± 0.0036 mPa·s
- viscosity (308.15 K, x1 = 0.4005): 0.4894 ± 0.0036 mPa·s
- viscosity (308.15 K, x1 = 0.4694): 0.484 ± 0.0036 mPa·s
- viscosity (308.15 K, x1 = 0.5368): 0.4775 ± 0.0036 mPa·s
- viscosity (308.15 K, x1 = 0.6067): 0.4704 ± 0.0035 mPa·s
- viscosity (308.15 K, x1 = 0.6704): 0.463 ± 0.0035 mPa·s
- viscosity (308.15 K, x1 = 0.7378): 0.4544 ± 0.0035 mPa·s
- viscosity (308.15 K, x1 = 0.8018): 0.4453 ± 0.0034 mPa·s
- viscosity (308.15 K, x1 = 0.8714): 0.4346 ± 0.0034 mPa·s
- viscosity (308.15 K, x1 = 0.9368): 0.4237 ± 0.0033 mPa·s
- viscosity (308.15 K, x1 = 1): 0.4125 ± 0.0033 mPa·s
- speed of sound (308.15 K, x1 = 0.0718): 1264.6 ± 1.5 m/s
- speed of sound (308.15 K, x1 = 0.1498): 1262.7 ± 1.5 m/s
- speed of sound (308.15 K, x1 = 0.2283): 1260.7 ± 1.5 m/s
- speed of sound (308.15 K, x1 = 0.2902): 1259.1 ± 1.5 m/s
- speed of sound (308.15 K, x1 = 0.3452): 1257.6 ± 1.5 m/s
- speed of sound (308.15 K, x1 = 0.4005): 1255.9 ± 1.5 m/s
- speed of sound (308.15 K, x1 = 0.4694): 1253.7 ± 1.6 m/s
- speed of sound (308.15 K, x1 = 0.5368): 1251.4 ± 1.6 m/s
- speed of sound (308.15 K, x1 = 0.6067): 1248.8 ± 1.6 m/s
- speed of sound (308.15 K, x1 = 0.6704): 1246.3 ± 1.6 m/s
- speed of sound (308.15 K, x1 = 0.7378): 1243.5 ± 1.6 m/s
- speed of sound (308.15 K, x1 = 0.8018): 1240.7 ± 1.6 m/s
- speed of sound (308.15 K, x1 = 0.8714): 1237.6 ± 1.6 m/s
- speed of sound (308.15 K, x1 = 0.9368): 1234.5 ± 1.6 m/s
- speed of sound (308.15 K, x1 = 1): 1231.5 ± 1.6 m/s
- viscosity (318.15 K, x1 = 0.0718): 0.4399 ± 0.0035 mPa·s
- viscosity (318.15 K, x1 = 0.1498): 0.4415 ± 0.0035 mPa·s
- viscosity (318.15 K, x1 = 0.2283): 0.4421 ± 0.0034 mPa·s
- viscosity (318.15 K, x1 = 0.2902): 0.4418 ± 0.0034 mPa·s
- viscosity (318.15 K, x1 = 0.3452): 0.4408 ± 0.0034 mPa·s
- viscosity (318.15 K, x1 = 0.4005): 0.4388 ± 0.0034 mPa·s
- viscosity (318.15 K, x1 = 0.4694): 0.4352 ± 0.0034 mPa·s
- viscosity (318.15 K, x1 = 0.5368): 0.4307 ± 0.0034 mPa·s
- viscosity (318.15 K, x1 = 0.6067): 0.4253 ± 0.0033 mPa·s
- viscosity (318.15 K, x1 = 0.6704): 0.4196 ± 0.0033 mPa·s
- viscosity (318.15 K, x1 = 0.7378): 0.4125 ± 0.0033 mPa·s
- viscosity (318.15 K, x1 = 0.8018): 0.405 ± 0.0032 mPa·s
- viscosity (318.15 K, x1 = 0.8714): 0.3957 ± 0.0032 mPa·s
- viscosity (318.15 K, x1 = 0.9368): 0.3861 ± 0.0032 mPa·s
- viscosity (318.15 K, x1 = 1): 0.3762 ± 0.0031 mPa·s
- speed of sound (318.15 K, x1 = 0.0718): 1219.3 ± 1.5 m/s
- speed of sound (318.15 K, x1 = 0.1498): 1217.3 ± 1.5 m/s
- speed of sound (318.15 K, x1 = 0.2283): 1215.2 ± 1.5 m/s
- speed of sound (318.15 K, x1 = 0.2902): 1213.5 ± 1.5 m/s
- speed of sound (318.15 K, x1 = 0.3452): 1212 ± 1.5 m/s
- speed of sound (318.15 K, x1 = 0.4005): 1210.4 ± 1.5 m/s
- speed of sound (318.15 K, x1 = 0.4694): 1208.2 ± 1.5 m/s
- speed of sound (318.15 K, x1 = 0.5368): 1205.9 ± 1.5 m/s
- speed of sound (318.15 K, x1 = 0.6067): 1203.4 ± 1.5 m/s
- speed of sound (318.15 K, x1 = 0.6704): 1200.9 ± 1.5 m/s
- speed of sound (318.15 K, x1 = 0.7378): 1198.3 ± 1.5 m/s
- speed of sound (318.15 K, x1 = 0.8018): 1195.7 ± 1.5 m/s
- speed of sound (318.15 K, x1 = 0.8714): 1192.8 ± 1.5 m/s
- speed of sound (318.15 K, x1 = 0.9368): 1190 ± 1.5 m/s
- speed of sound (318.15 K, x1 = 1): 1187.2 ± 1.5 m/s

— the NIST ThermoML archive (doi:10.1016/j.fluid.2007.07.016)
